Values of other authors, collected in patent publication US9278976B2, “Aminotetrahydropyrans as dipeptidyl peptidase-IV inhibitors for the treatment of diabetes” (Merck Sharp & Dohme Corp., priority 2008, dated 2016).

Legend:
[1] = mouse, cyclophosphamide-induced neutropenia
[2] = rats; doubled from day 7

SMILES	hematopoiesis [1]	cardiac allograft survival [2] [day]
CC(C)[C@H](N)C(=O)N1CCC[C@H]1B(O)O [Val-Boro-Pro]	stimulated hematopoiesis	–
CC(C)N1CCC(c2ccccc2)(c2ccccc2)CC1 [Prodipine, Pro-Pro-diphenyl-phosphonate]	–	14
